Reference: patent US12290551B2, “Methods for imaging and treatment of somatostatin-receptor positive tumors” (Corcept Therapeutics Incorporated, priority 2018, dated 2025)

Assays:
Type in all cases: in vivo, human
[1] = test system: Cushing's syndrome patients; test: 24-hr Urinary Free Cortisol, Group 1, 12 week ascending-dose relacorilant study; settings: for change in cortisol levels: Cushing's syndrome patients, Groups 1 and 2 (Tables 1 and 2); for Mean 24-hr UFC: Group 1, baseline 215.6
Excerpt: (§1) Cortisol levels can be measured in a biological sample, such as saliva, urine, whole blood, serum, plasma, or any other biological fluid taken from a patient suffering from Cushing's syndrome. Such samples are typically analyzed in vitro. In some cases, the same sample is used to measure cortisol level and ACTH level. In other cases, different samples are used to measure cortisol and ACTH levels. For example, cortisol levels can be measured in saliva or urine, and ACTH levels can be measured in plasma. In yet other cases, different samples of the same type are used to measure the levels. Methods for measuring cortisol levels are known to those in the art. Useful assays include immunoassays, e.g., competitive immunoassay, radioimmunoassay, immunofluorometric enzyme assay, and ELISA, competitive protein-binding assay and mass spectrometry, e.g., high-performance liquid chromatography/triple quadrupole-mass spectrometry (LC-MS/MS). Commercial kits for measuring cortisol in sample are available from, e.g., Beckman-Coulter, Seimens, Roche Diagnostics, and the like. Non-limiting examples of an immunoassay include an ADVIA Centaur® Cortisol assay (Siemens Healthcare Global), […] i2000SR cortisol (Abbott), Immulite® 2000 Cortisol assay (Siemans Healthcare Global; #L2KCO2), Vitros® ECi Cortisol assay (Ortho Clinical Diagnostics; #107 4053), and Elecsys® Cortisol Immunoassay (Roche Molecular Diagnostics; #11875116160).
Cortisol levels were measured in Cushing's syndrome patients who were administered doses of the heteroaryl-ketone fused azadecalin compound relacorilant. Urinary Free Cortisol (UFC) was measured in these patients over the course of a 12 week study in which ascending doses of relacorilant were administered.

[2] = test system: Cushing's syndrome patients; test: 24-hr Urinary Free Cortisol, Group 2, 16 week ascending-dose relacorilant study
Excerpt: as §1
Cortisol levels were measured in a second group of Cushing's syndrome patients who were administered doses of relacorilant. Urinary Free Cortisol (UFC) was measured in these patients over the course of a 16 week study in which ascending doses of relacorilant were administered.

[3] = test system: Cushing's syndrome patients; test: Mean ACTH levels in relacorilant Groups 1 and 2
Excerpt: Cortisol levels obtained for individual patients and the UFC tabular summary (Tables 1 and 2 above) show no significant changes from baseline in UFC.

[4] = test system: Cushing's syndrome patients; test: Drug-induced hypokalemia in Phase 2 study of relacorilant
[5] = test system: ectopic tumor (somatostatin receptor expression); test: Indium octreoscan imaging of ectopic tumor before and after relacorilant treatment; settings: one patient; oral once daily 250, 300, 350, 400 mg/day, four weeks each; 111Indium octreotide
Description: In a further attempt to image, and to localize, the tumor in the patient, an indium octreoscan image (patient was administered Octreotide radiolabeled with ^111Indium prior to imaging) was obtained, in which a dot was seen which enabled localization of the tumor to the right lung/mediastinum region of the patient.
Relacorilant was then orally administered to the patient once per day for four months. The patient was administered 250 milligrams (mg) per day of relacorilant for four weeks, followed by 300 mg/day relacorilant for the next four weeks, followed by 350 mg/day relacorilant for a further four weeks, and then was administered 400 mg relacorilant for another four weeks.
The indium octreoscan image of FIG. 2 provides a much improved and enhanced image of the tumor in the patient as compared to the image of FIG. 1. It is believed that the improvement in the indium octreoscan image of FIG. 2 as compared to the image shown in FIG. 1 was due to increased somatostatin receptor expression, e.g., due to increased sst2 receptor expression, as compared to that expression prior to the relacorilant treatment.

drug-induced hypokalemia [4]: lack of drug-induced hypokalemia
Structure (SMILES): Cn1cc(S(=O)(=O)N2CCC3=Cc4c(cnn4-c4ccc(F)cc4)C[C@]3(C(=O)c3cc(C(F)(F)F)ccn3)C2)cn1 [relacorilant, (R)-(1-(4-fluorophenyl)-6-((1-methyl-1H-pyrazol-4-yl)sulfonyl)-4,4a,5,6,7,8-hexahydro-1H-pyrazolo[3,4-g]isoquinolin-4a-yl)(4-(trifluoromethyl)pyridin-2-yl)methanone]
change in cortisol levels [1]: does not lead to significant increases in cortisol levels
change in cortisol levels ([1]; listed as Relacorilant): no increases in cortisol concentrations
Mean 24-hr UFC ([1]; relacorilant 100 mg, Wk 2): 151.8 µg/day
Mean 24-hr UFC ([1]; relacorilant 100 mg, Wk 4): 157.0 µg/day
Mean 24-hr UFC ([1]; relacorilant 150 mg, Wk 6): 145.3 µg/day
Mean 24-hr UFC ([1]; relacorilant 150 mg, Wk 8): 134.9 µg/day
Mean 24-hr UFC ([1]; relacorilant 200 mg, Wk 10): 180.9 µg/day
Mean 24-hr UFC ([1]; relacorilant 200 mg, Wk 12): 211.6 µg/day
Mean 24-hr UFC ([2]; relacorilant 250 mg, Wk 2, baseline 228.1): 252.1 µg/day
Mean 24-hr UFC ([2]; relacorilant 250 mg, Wk 4, baseline 228.1): 218.2 µg/day
Mean 24-hr UFC ([2]; relacorilant 300 mg, Wk 6, baseline 228.1): 257.4 µg/day
Mean 24-hr UFC ([2]; relacorilant 300 mg, Wk 8, baseline 228.1): 149.1 µg/day
Mean 24-hr UFC ([2]; relacorilant 350 mg, Wk 10, baseline 228.1): 185.4 µg/day
Mean 24-hr UFC ([2]; relacorilant 350 mg, Wk 12, baseline 228.1): 249.0 µg/day
Mean 24-hr UFC ([2]; relacorilant 400 mg, Wk 14, baseline 228.1): 194.1 µg/day
Mean 24-hr UFC ([2]; relacorilant 400 mg, Wk 16, baseline 228.1): 203.1 µg/day
mean ACTH ([3]; Group 1, Week 12, SD 10.34, Baseline 11.02±8.04): 14.68 pmol/L
mean ACTH ([3]; Group 2, Week 16 or last-observed, SD 10.72, Baseline 12.79±8.36): 15.56 pmol/L
change in ACTH ([3]; baseline to end of treatment): only modest increases in ACTH
effect on indium octreoscan images of the ectopic tumor [5]: enhanced
